Assay results taken from US9434697B2, “Pyrimidine FGFR4 inhibitors” (priority 2013, dated 2016).
Read-outs that look alike come from different tables or passages of the source.

Legend:
HEP3B tumor xenografts = format: in vivo
Recombinant FGFR1 = Recombinant FGFR1 (Homo sapiens (Human), UniProt P11362); experiment: Kinase HotSpot assay, IC50 profiling of kinase activity inhibition (FGFR1); format: biochemical; details: Table 1; 10 μM ATP
Recombinant FGFR4 = Recombinant FGFR4 (Homo sapiens (Human), UniProt P22455); experiment: Kinase HotSpot assay, IC50 profiling of kinase activity inhibition (FGFR4); format: biochemical; details: Table 1; 10 μM ATP
Sequence of Recombinant FGFR4 (P22455 22-802): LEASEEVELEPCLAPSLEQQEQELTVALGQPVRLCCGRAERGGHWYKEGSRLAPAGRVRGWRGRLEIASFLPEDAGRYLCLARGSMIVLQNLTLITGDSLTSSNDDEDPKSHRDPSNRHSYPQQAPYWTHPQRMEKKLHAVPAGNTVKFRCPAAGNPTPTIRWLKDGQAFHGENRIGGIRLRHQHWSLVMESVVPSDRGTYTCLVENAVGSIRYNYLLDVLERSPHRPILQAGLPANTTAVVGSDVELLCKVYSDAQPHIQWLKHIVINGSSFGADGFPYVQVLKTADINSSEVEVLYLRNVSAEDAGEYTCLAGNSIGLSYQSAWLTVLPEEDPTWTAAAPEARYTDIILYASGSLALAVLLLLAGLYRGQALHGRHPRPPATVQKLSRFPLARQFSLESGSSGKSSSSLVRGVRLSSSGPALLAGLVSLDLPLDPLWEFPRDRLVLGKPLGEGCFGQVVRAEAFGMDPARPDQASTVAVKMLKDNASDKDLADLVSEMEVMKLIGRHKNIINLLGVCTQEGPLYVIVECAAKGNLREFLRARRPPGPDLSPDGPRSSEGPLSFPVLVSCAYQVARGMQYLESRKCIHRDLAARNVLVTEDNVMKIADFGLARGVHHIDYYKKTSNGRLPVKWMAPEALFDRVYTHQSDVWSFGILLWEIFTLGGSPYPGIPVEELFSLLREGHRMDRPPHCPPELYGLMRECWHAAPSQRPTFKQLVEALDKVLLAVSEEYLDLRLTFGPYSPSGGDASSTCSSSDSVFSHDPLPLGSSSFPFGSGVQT

Sequence of Recombinant FGFR1 (P11362 22-822): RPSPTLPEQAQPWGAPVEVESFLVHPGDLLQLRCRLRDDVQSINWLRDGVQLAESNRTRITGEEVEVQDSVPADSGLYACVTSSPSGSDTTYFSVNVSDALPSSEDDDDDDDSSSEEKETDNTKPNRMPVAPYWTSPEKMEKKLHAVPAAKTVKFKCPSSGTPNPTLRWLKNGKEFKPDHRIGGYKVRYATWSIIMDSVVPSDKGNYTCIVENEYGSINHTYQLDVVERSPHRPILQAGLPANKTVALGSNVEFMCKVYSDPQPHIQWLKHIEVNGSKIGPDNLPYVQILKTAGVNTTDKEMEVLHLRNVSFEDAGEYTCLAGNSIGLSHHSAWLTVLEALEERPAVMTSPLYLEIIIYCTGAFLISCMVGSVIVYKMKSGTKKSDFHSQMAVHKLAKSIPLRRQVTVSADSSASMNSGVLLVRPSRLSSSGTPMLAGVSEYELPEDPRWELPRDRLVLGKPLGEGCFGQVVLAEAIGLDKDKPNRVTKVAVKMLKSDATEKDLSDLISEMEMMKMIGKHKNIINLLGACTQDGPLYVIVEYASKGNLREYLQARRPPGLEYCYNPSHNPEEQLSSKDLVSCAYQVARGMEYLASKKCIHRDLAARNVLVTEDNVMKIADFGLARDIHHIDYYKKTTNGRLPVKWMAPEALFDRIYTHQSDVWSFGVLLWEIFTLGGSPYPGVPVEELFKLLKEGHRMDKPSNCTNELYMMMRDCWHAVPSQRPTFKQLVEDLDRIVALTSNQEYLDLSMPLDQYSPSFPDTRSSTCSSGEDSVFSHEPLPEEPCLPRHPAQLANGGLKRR

CCN1CCN(c2ccc(Nc3cc(N(C)C(=O)Nc4c(Cl)c(OC)cc(OC)c4Cl)ncn3)cc2)CC1 [BGJ398]
tolerability (health of animals) (HEP3B tumor xenografts; 30 mg/kg orally twice daily): did not exhibit poor health | comparative in vivo efficacy (tumor volume) (HEP3B tumor xenografts; 60 mg/kg orally twice daily): efficacy comparable to compound 108 | tolerability (health of animals) (HEP3B tumor xenografts; 60 mg/kg orally twice daily): terminated on Day 11 due to poor health of animals

C=CC(=O)Nc1ccccc1Nc1cc(N(C)C(=O)Nc2cc(OC)cc(OC)c2)ncn1 [Example 102]
IC50 (Recombinant FGFR1): > 10000 nM | IC50 (Recombinant FGFR4): 853 nM

C=CC(=O)Nc1cc(N2CCN(CC)CC2)ccc1Nc1cc(N(C)C(=O)Nc2c(Cl)c(OC)cc(OC)c2Cl)ncn1 [Example 108, N-(2-(6-(3-(2,6-Dichloro-3,5-dimethoxyphenyl)-1-methylureido)pyrimidin-4-ylamino)-5-(4-ethylpiperazin-1-yl)phenyl)acrylamide]
comparative in vivo efficacy (tumor volume) (HEP3B tumor xenografts; 25, 37.5 or 50 mg/kg i.p. twice daily, 18 days): more efficacious than BGJ398 at tolerable dosage levels
